# According to PubChem BioAssay (NCI):
#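 Cultured in 96-well plates, cells were exposed to test compound for 48 hours across five concentrations. TGI denotes the concentration required for complete inhibition of growth.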
# Experiments:
# Experiment in all cases: growth of human tumour cells (NCI), 48 h
# 786-0 renal = system: 786-0 renal
# A549 NSCLC = system: A549 NSCLC
# ACHN renal = system: ACHN renal
# CAKI-1 renal = system: CAKI-1 renal
# CCRF-CEM leukemia = system: CCRF-CEM leukemia
# COLO 205 colon = system: COLO 205 colon
# DLD-1 colon = system: DLD-1 colon
# DMS 273 small cell lung = system: DMS 273 small cell lung
# EKVX NSCLC = system: EKVX NSCLC
# HCC-2998 colon = system: HCC-2998 colon
# HCT-116 colon = system: HCT-116 colon
# HCT-15 colon = system: HCT-15 colon
# HL-60(TB) leukemia = system: HL-60(TB) leukemia
# HOP-62 NSCLC = system: HOP-62 NSCLC
# HOP-92 NSCLC = system: HOP-92 NSCLC
# HT29 colon = system: HT29 colon
# IGROV1 ovarian = system: IGROV1 ovarian
# K-562 leukemia = system: K-562 leukemia
# KM12 colon = system: KM12 colon
# KM20L2 colon = system: KM20L2 colon
# LOX IMVI melanoma = system: LOX IMVI melanoma
# LXFL 529 NSCLC = system: LXFL 529 NSCLC
# M14 melanoma = system: M14 melanoma
# M19-MEL melanoma = system: M19-MEL melanoma
# MOLT-4 leukemia = system: MOLT-4 leukemia
# NCI-H226 lung = system: NCI-H226 lung
# NCI-H23 lung = system: NCI-H23 lung
# NCI-H460 lung = system: NCI-H460 lung
# NCI-H522 lung = system: NCI-H522 lung
# OVCAR-4 ovarian = system: OVCAR-4 ovarian
# OVCAR-5 ovarian = system: OVCAR-5 ovarian
# OVCAR-8 ovarian = system: OVCAR-8 ovarian
# RPMI-8226 leukemia = system: RPMI-8226 leukemia
# SF-268 CNS = system: SF-268 CNS
# SF-295 CNS = system: SF-295 CNS
# SF-539 CNS = system: SF-539 CNS
# SK-MEL-2 melanoma = system: SK-MEL-2 melanoma
# SK-MEL-28 melanoma = system: SK-MEL-28 melanoma
# SK-MEL-5 melanoma = system: SK-MEL-5 melanoma
# SK-OV-3 ovarian = system: SK-OV-3 ovarian
# SN12C renal = system: SN12C renal
# SNB-19 CNS = system: SNB-19 CNS
# SNB-75 CNS = system: SNB-75 CNS
# SNB-78 CNS = system: SNB-78 CNS
# SR leukemia = system: SR leukemia
# SW-620 colon = system: SW-620 colon
# TK-10 renal = system: TK-10 renal
# U251 CNS = system: U251 CNS
# UACC-62 melanoma = system: UACC-62 melanoma
# UO-31 renal = system: UO-31 renal
# XF 498 CNS = system: XF 498 CNS
# DMS 114 small cell lung = system: DMS 114 small cell lung
# MALME-3M melanoma = system: MALME-3M melanoma
# OVCAR-3 ovarian = system: OVCAR-3 ovarian
# RXF 393 renal = system: RXF 393 renal
# UACC-257 melanoma = system: UACC-257 melanoma
# A498 renal = system: A498 renal
smiles,measurement,setting,value
CC1=Nn2c(nnc2-c2ccccc2Cl)NC(C)(C)C1,TGI,786-0 renal,> 100 µM
same,TGI,A549 NSCLC,> 100 µM
same,TGI,ACHN renal,> 100 µM
same,TGI,CAKI-1 renal,> 100 µM
same,TGI,CCRF-CEM leukemia,> 100 µM
same,TGI,COLO 205 colon,> 100 µM
same,TGI,DLD-1 colon,> 100 µM
same,TGI,DMS 273 small cell lung,> 100 µM
same,TGI,EKVX NSCLC,> 100 µM
same,TGI,HCC-2998 colon,> 100 µM
same,TGI,HCT-116 colon,> 100 µM
same,TGI,HCT-15 colon,> 100 µM
same,TGI,HL-60(TB) leukemia,> 100 µM
same,TGI,HOP-62 NSCLC,> 100 µM
same,TGI,HOP-92 NSCLC,> 100 µM
same,TGI,HT29 colon,> 100 µM
same,TGI,IGROV1 ovarian,> 100 µM
same,TGI,K-562 leukemia,> 100 µM
same,TGI,KM12 colon,> 100 µM
same,TGI,KM20L2 colon,> 100 µM
same,TGI,LOX IMVI melanoma,> 100 µM
same,TGI,LXFL 529 NSCLC,> 100 µM
same,TGI,M14 melanoma,> 100 µM
same,TGI,M19-MEL melanoma,> 100 µM
same,TGI,MOLT-4 leukemia,> 100 µM
same,TGI,NCI-H226 lung,> 100 µM
same,TGI,NCI-H23 lung,> 100 µM
same,TGI,NCI-H460 lung,> 100 µM
same,TGI,NCI-H522 lung,> 100 µM
same,TGI,OVCAR-4 ovarian,> 100 µM
same,TGI,OVCAR-5 ovarian,> 100 µM
same,TGI,OVCAR-8 ovarian,> 100 µM
same,TGI,RPMI-8226 leukemia,54.3 µM
same,TGI,SF-268 CNS,> 100 µM
same,TGI,SF-295 CNS,> 100 µM
same,TGI,SF-539 CNS,> 100 µM
same,TGI,SK-MEL-2 melanoma,> 100 µM
same,TGI,SK-MEL-28 melanoma,> 100 µM
same,TGI,SK-MEL-5 melanoma,> 100 µM
same,TGI,SK-OV-3 ovarian,> 100 µM
same,TGI,SN12C renal,> 100 µM
same,TGI,SNB-19 CNS,> 100 µM
same,TGI,SNB-75 CNS,> 100 µM
same,TGI,SNB-78 CNS,> 100 µM
same,TGI,SR leukemia,74.4 µM
same,TGI,SW-620 colon,35.8 µM
same,TGI,TK-10 renal,> 100 µM
same,TGI,U251 CNS,> 100 µM
same,TGI,UACC-62 melanoma,> 100 µM
same,TGI,UO-31 renal,> 100 µM
same,TGI,XF 498 CNS,> 100 µM
Cn1cccc(C(=O)c2ccccc2)c1=O,TGI,786-0 renal,> 100 µM
same,TGI,A549 NSCLC,> 100 µM
same,TGI,ACHN renal,> 100 µM
same,TGI,CAKI-1 renal,> 100 µM
same,TGI,CCRF-CEM leukemia,> 100 µM
same,TGI,COLO 205 colon,> 100 µM
same,TGI,DLD-1 colon,> 100 µM
same,TGI,DMS 114 small cell lung,> 100 µM
same,TGI,DMS 273 small cell lung,> 100 µM
same,TGI,EKVX NSCLC,> 100 µM
same,TGI,HCC-2998 colon,> 100 µM
same,TGI,HCT-116 colon,> 100 µM
same,TGI,HCT-15 colon,> 100 µM
same,TGI,HL-60(TB) leukemia,> 100 µM
same,TGI,HOP-62 NSCLC,> 100 µM
same,TGI,HOP-92 NSCLC,> 100 µM
same,TGI,HT29 colon,> 100 µM
same,TGI,IGROV1 ovarian,> 100 µM
same,TGI,K-562 leukemia,> 100 µM
same,TGI,KM12 colon,> 100 µM
same,TGI,KM20L2 colon,> 100 µM
same,TGI,LOX IMVI melanoma,> 100 µM
same,TGI,LXFL 529 NSCLC,> 100 µM
same,TGI,M14 melanoma,> 100 µM
same,TGI,M19-MEL melanoma,> 100 µM
same,TGI,MALME-3M melanoma,> 100 µM
same,TGI,MOLT-4 leukemia,> 100 µM
same,TGI,NCI-H226 lung,> 100 µM
same,TGI,NCI-H23 lung,> 100 µM
same,TGI,NCI-H460 lung,> 100 µM
same,TGI,NCI-H522 lung,> 100 µM
same,TGI,OVCAR-3 ovarian,> 100 µM
same,TGI,OVCAR-4 ovarian,> 100 µM
same,TGI,OVCAR-5 ovarian,> 100 µM
same,TGI,OVCAR-8 ovarian,> 100 µM
same,TGI,RPMI-8226 leukemia,> 100 µM
same,TGI,RXF 393 renal,> 100 µM
same,TGI,SF-268 CNS,> 100 µM
same,TGI,SF-295 CNS,> 100 µM
same,TGI,SF-539 CNS,> 100 µM
same,TGI,SK-MEL-2 melanoma,> 100 µM
same,TGI,SK-MEL-28 melanoma,> 100 µM
same,TGI,SK-MEL-5 melanoma,> 100 µM
same,TGI,SK-OV-3 ovarian,> 100 µM
same,TGI,SN12C renal,> 100 µM
same,TGI,SNB-19 CNS,> 100 µM
same,TGI,SNB-75 CNS,> 100 µM
same,TGI,SNB-78 CNS,> 100 µM
same,TGI,SR leukemia,> 100 µM
same,TGI,SW-620 colon,> 100 µM
same,TGI,TK-10 renal,> 100 µM
same,TGI,U251 CNS,> 100 µM
same,TGI,UACC-257 melanoma,> 100 µM
same,TGI,UACC-62 melanoma,> 100 µM
same,TGI,UO-31 renal,> 100 µM
same,TGI,XF 498 CNS,> 100 µM
CSC1C=C(C(C)C)CCC1(C)SC (configuration not stated),TGI,786-0 renal,31.7 µM
same,TGI,A498 renal,40.4 µM
same,TGI,A549 NSCLC,78.4 µM
same,TGI,ACHN renal,32.6 µM
same,TGI,CAKI-1 renal,32.4 µM
same,TGI,CCRF-CEM leukemia,57 µM
same,TGI,COLO 205 colon,29.7 µM
same,TGI,DLD-1 colon,32.4 µM
same,TGI,DMS 114 small cell lung,30.6 µM
same,TGI,DMS 273 small cell lung,33 µM
same,TGI,EKVX NSCLC,44.7 µM
same,TGI,HCC-2998 colon,30.9 µM
same,TGI,HCT-116 colon,37.1 µM
same,TGI,HCT-15 colon,39.9 µM
same,TGI,HL-60(TB) leukemia,27.8 µM
same,TGI,HOP-62 NSCLC,35.5 µM
same,TGI,HOP-92 NSCLC,31.2 µM
same,TGI,HT29 colon,29.6 µM
same,TGI,IGROV1 ovarian,35.5 µM
same,TGI,K-562 leukemia,40.9 µM
same,TGI,KM12 colon,27.7 µM
same,TGI,KM20L2 colon,56.8 µM
same,TGI,LOX IMVI melanoma,32.5 µM
same,TGI,LXFL 529 NSCLC,32.9 µM
same,TGI,M14 melanoma,32 µM
same,TGI,M19-MEL melanoma,31.3 µM
same,TGI,MALME-3M melanoma,26.1 µM
same,TGI,MOLT-4 leukemia,40 µM
same,TGI,NCI-H226 lung,31.6 µM
same,TGI,NCI-H23 lung,35.7 µM
same,TGI,NCI-H460 lung,30.9 µM
same,TGI,NCI-H522 lung,31.6 µM
same,TGI,OVCAR-3 ovarian,25.2 µM
same,TGI,OVCAR-4 ovarian,33.9 µM
same,TGI,OVCAR-5 ovarian,30.5 µM
same,TGI,OVCAR-8 ovarian,35.5 µM
same,TGI,RPMI-8226 leukemia,59.4 µM
same,TGI,RXF 393 renal,29 µM
same,TGI,SF-268 CNS,35.1 µM
same,TGI,SF-539 CNS,33.6 µM
same,TGI,SK-MEL-2 melanoma,32.8 µM
same,TGI,SK-MEL-28 melanoma,34.2 µM
same,TGI,SK-MEL-5 melanoma,31.3 µM
same,TGI,SK-OV-3 ovarian,39.3 µM
same,TGI,SN12C renal,30.6 µM
same,TGI,SNB-19 CNS,36.9 µM
same,TGI,SNB-75 CNS,31.7 µM
same,TGI,SNB-78 CNS,32.3 µM
same,TGI,SW-620 colon,38 µM
same,TGI,TK-10 renal,41.4 µM
same,TGI,U251 CNS,33.7 µM
same,TGI,UACC-257 melanoma,29.4 µM
same,TGI,UACC-62 melanoma,47.6 µM
same,TGI,UO-31 renal,27.4 µM
same,TGI,XF 498 CNS,33.8 µM
